# Results: patent US20100190813A1, “SPIRO [PIPERIDINE-4- 4' -THIENO [3,2-C] PYRAN] DERIVATIVES AND RELATED COMPOUNDS AS INHIBITORS OF THE SIGMA RECEPTOR FOR THE TREATMENT OF PSYCHOSIS” (priority 2007, published 2010)
# Where two headings read alike, the source gives them in different places.
# How the values were obtained:
# σ1-receptor [1] = target: T1, σ1-receptor (Cavia porcellus, UniProt Q60492); experiment: Sigma 1 receptor binding (Version B), [3H]-(+)-Pentazocin displacement; parameters: species or system guinea pig
# T1 construct: the σ1-receptor preparation was prepared from guinea pig brain; from tissue; host or cells: guinea pig brain membrane homogenate
# Experimental: In brief the σ1-receptor preparation was prepared from guinea pig brain. The brains were homogenized in 5 to 6 times of volume sucrose solution (0.32M) and homogenized. The homogenate was centrifuged at 2900 rpm, 4° C., 10 min). the supernatant was centrifuged again (23500×g, 4° C., 20 min). The pellet was resuspended in Tris-buffer, incubated for 30 min at room temperature and centrifuged f (23500×g, 4° C., 20 min). The pellet was resuspended in cold TRIS-buffer and homogenized. Then the protein content was measured (approx. 1.5 mg/mL) and the homogenate frozen at −80° C. for later use.
# The radioligand used was [^3H]-(+)-Pentazocin in TRIS-buffer. In a volume of 200 μL 50 μL TRIS-buffer, 50 μL compound solution of varying concentration, 50 μL radioligand-solution (8 nM; resulting in 2 nM in the assay) and finally 50 μL of receptor preparation (approx. 1.5 mg/mL) were given into a well of a microplate equipped with a filter. The plate was closed and stirred for 2.5 h at 37° C. and 500 rpm. Following that the solvents were removed by a harvester through the filter. After rinsing with H2O the filter was measured in a scintillation counter ([^3H]-protocol).
# σ2-receptor = target: T2, σ2-receptor (Rattus norvegicus, UniProt Q5U3Y7); experiment: Sigma 2 receptor binding (Version B), [3H]-Ditolylguanidin displacement; conditions: for Ki: [3H]-Ditolylguanidin 3 nM, σ1 sites masked with (+)-Pentazocin 500 nM; for inhibition at 1 µM: read-out: Binding σ2 *[Inhibition at 1 μM]
# T2 construct: the σ2-Receptorpreparation was prepared from rat liver; from tissue; host or cells: rat liver membrane homogenate
# T2 sequence (Q5U3Y7 1-176): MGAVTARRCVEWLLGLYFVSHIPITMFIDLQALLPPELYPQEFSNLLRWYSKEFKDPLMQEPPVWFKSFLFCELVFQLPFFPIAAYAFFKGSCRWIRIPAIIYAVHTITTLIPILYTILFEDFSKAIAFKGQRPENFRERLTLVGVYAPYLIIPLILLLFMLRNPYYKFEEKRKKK
# Experimental: In brief the σ2-Receptorpreparation was prepared from rat liver. The livers were homogenized in 5 to 6 times of volume sucrose solution (0.32M) and homogenized. The homogenate was centrifuged at 2900 rpm, 4° C., 10 min). the supernatant was centrifuged again (31000×g, 4° C., 20 min). The pellet was resuspended in TRIS-buffer, incubated for 30 min at room temperature while stirring and centrifuged f (31000×g, 4° C., 20 min). The pellet was resuspended in cold TRIS-buffer pH 8 and homogenized. Then the protein content was measured (approx. 2 mg/mL) and the homogenate frozen at −80° C. for later use.
# The radioligand used was [^3H]-Ditolylguanidin in TRIS-buffer pH 8. The σ1-receptor binding sites were masked through (+)-Pentazocin-solution in TRIS-Puffer pH 8.
# In a volume of 200 μL 50 μL compound solution of varying concentration, 50 μL (+)-Pentazocin-solution ([…]; resulting in 500 nM in the assay), 50 μL radioligand-solution (12 nM; resulting in 3 nM in the assay) and finally 50 μL of receptor preparation (approx. 2 mg/mL) were given into a well of a microplate equipped with a filter. The plate was closed and stirred for 2 h at room temperature and 500 rpm. Following that the solvents were removed by a harvester through the filter. After rinsing with H2O the filter was measured in a scintillation counter ([^3H]-protocol).
# σ1-receptor [2] = target: T1, σ1-receptor; experiment: Sigma-1 receptor binding (Version A), [3H]-(+)-pentazocine displacement; parameters: species or system guinea pig
# [3] = version B, guinea pig brain preparation, [3H]-(+)-Pentazocin 2 nM, read-out: Binding σ1 Ki
# [4] = Binding σ2 Ki [nM], version B, rat liver preparation
# [5] = version B, rat liver preparation, compound at 1 μM
# [6] = version B, rat liver preparation, read-out: Binding σ2 Ki
# [7] = version A, guinea pig brain membranes, [3H]-(+)-pentazocine 3.0 nM, read-out: Binding σ1, Ki
# T1 sequence (Q60492 whole entry): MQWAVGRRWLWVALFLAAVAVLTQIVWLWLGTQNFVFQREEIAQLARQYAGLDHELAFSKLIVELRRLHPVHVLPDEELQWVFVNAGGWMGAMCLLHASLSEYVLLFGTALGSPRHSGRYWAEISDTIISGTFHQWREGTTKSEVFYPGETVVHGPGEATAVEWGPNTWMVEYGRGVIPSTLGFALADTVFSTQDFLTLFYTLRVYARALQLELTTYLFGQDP
smiles,measurement,setting,value
"c1cc2c(s1)CCOC21CCN(CC2CCCCC2)CC1 [Example 26, 1-(Cyclohexylmethyl)-6′,7′-dihydrospiro[piperidine-4,4′-thieno[3,2-c]pyrano]]",Ki,σ1-receptor [1]; [3],0.66 ± 0.27 nM
same,melting point,,77 °C
same,Ki,σ2-receptor; [4],3.27 ± 0.53 nM
"CCOC(=O)C1Cc2sccc2C2(CCN(Cc3ccccc3)CC2)O1 (stereo not drawn) [Example 33, Ethyl-1-benzyl-6′,7′-dihvrospiro[piperidine-4,4′-thieno[3,2-c]pyrano]-6′-carboxylate]",inhibition at 1 µM,σ2-receptor; [5],0%
"COC1Cc2sccc2C2(CCN(CCCCc3ccccc3)CC2)O1 (stereo not drawn) [Example 12, 3′-Methoxy-1-(4-phenylbutyl)-6′,7′-dihydrospiro[piperidin-4,4% thieno[3.2-c]pyran]]",Ki,σ1-receptor [1]; [3],7.67 ± 2.15 nM
same,Ki,σ2-receptor; [4],99.2 ± 21.9 nM
"N#CCC1Cc2sccc2C2(CCN(Cc3ccccc3)CC2)O1 (stereo not drawn) [Example 18, {1-Benzyl-6′,7′-dihyrospiro[piperidin-4,4′-thieno[3,2-c]pyran]-6′-yl}acetonitril]",inhibition at 1 µM,σ2-receptor; [5],6%
"CCCCN1CCC2(CC1)OC(OC)Cc1sccc12 (stereo not drawn) [Example 8, 1-Butyl-6′-methoxy-6′,7′-dihydrospiro[piperidin-4,4′-thieno[3.2-c]pyran]]",Ki,σ1-receptor [1]; [3],4.3 ± 0.44 nM
same,Ki,σ1-receptor [2],5.5 ± 1.2 nM
same,Ki,σ2-receptor; [6],497 ± 294 nM
"CCCCCN1CCC2(CC1)OC(OC)Cc1sccc12 (stereo not drawn) [Example 9, 6′-Methoxy-1-pentyl-6′,7′-dihydrospiro[piperidin-4,4′-thieno[3.2-c]pyran]]",Ki,σ1-receptor [1],1.64 ± 0.53 nM
same,Ki,σ1-receptor [2],2.9 ± 0.5 nM
same,Ki,σ2-receptor; [6],460 nM
"COC1Cc2sccc2C2(CCN(Cc3ccccc3)CC2)O1 (stereo not drawn) [Example 3, 1-Benzyl-6′-methoxy-6′,7′-dihydrospiro[piperidin-4,4′-thieno[3.2-c]pyran]]",Ki,σ1-receptor [1]; [3],0.32 ± 0.16 nM
same,melting point,,78 °C
same,Ki,σ1-receptor [2],2.4 ± 0.3 nM
same,Ki,σ2-receptor; [6],1260 nM
"NC(=O)C1Cc2sccc2C2(CCN(Cc3ccccc3)CC2)O1 (stereo not drawn) [Example 29, 1-Benzyl-6′,7′-dihyrospiro[piperidine-4,4′-thieno[3,2-c]pyrano]-6′-carboxamide]",inhibition at 1 µM,σ2-receptor; [5],63%
c1ccc(CN2CCC3(CC2)OCCc2sccc23)cc1 [Example 26a],Ki,"σ1-receptor [1]; read-out: Binding σ1 Ki, version B, guinea pig brain preparation, [3H]-(+)-Pentazocin 2 nM",0.31 ± 0.11 nM
N#CCC1Cc2sccc2C2(CCN(Cc3ccccc3)CC2)O1 (stereo not drawn) [Example 23a],Binding σ2 *[Inhibition at 1 μM],"σ2-receptor; version B, rat liver preparation, compound at 1 μM, 1 µM",6%
"COC1Cc2sc(Cl)cc2C2(CCN(Cc3ccccc3)CC2)O1 (stereo not drawn) [Example 38, 1-Benzyl-2′-chloro-6′-methoxy-6′,7′-dihydrospiro[piperidine-4,4′-thieno[3.2-c]-pyrano]]",melting point,,117 °C
same,inhibition at 1 µM,σ2-receptor; [5],49%
"COC1Cc2sccc2C2(CCN(CCc3ccccc3)CC2)O1 (stereo not drawn) [Example 4, 6′-Methoxy-1-(2-phenylethyl)-6′,7′-dihydrospiro[piperidin-4,4′-thieno[3.2-c]pyran]]",Ki,σ1-receptor [1],5.89 ± 5.1 nM
same,melting point,,94 °C
same,Ki,σ2-receptor; [6],191 nM
"CCCCCCCCN1CCC2(CC1)OC(OC)Cc1sccc12 (stereo not drawn) [Example 10, 6′-Methoxy-1-octyl-6′,7′-dihydrospiro[piperidin-4,4-thieno[3.2-c]pyran]]",Ki,σ1-receptor [1],4.5 ± 2 nM
same,Ki,σ2-receptor; [6],1200 nM
"COC1Cc2sccc2C2(CCN(Cc3cccs3)CC2)O1 (stereo not drawn) [Example 15, 6′-Methoxy-1-(thien-2-ylmethyl)-6′,7′-dihydrospiro[piperidin-4,4′-thieno[3.2-c]pyran]]",Ki,σ1-receptor [1]; [3],2.02 ± 0.61 nM
same,Ki,σ2-receptor; [6],1040 nM
"COC(=O)c1cc2c(s1)CC(OC)OC21CCN(Cc2ccccc2)CC1 (stereo not drawn) [Example 45, Methyl-1-benzyl-6′-methoxy-6′,7′-dihydrospiro[piperidine-4,4′-thieno[3,2-c]pyrano]-2-carboxylate]",inhibition at 1 µM,σ2-receptor; [5],45%
"COC1Cc2sccc2C2(CCN(CC3CCCCC3)CC2)O1 (stereo not drawn) [Example 5, 1-(Cyclohexylmethyl)-6′Methoxy-6′,7′-dihydrospiro[piperidin-4,4′-thieno[3.2-c]pyran]]",Ki,σ1-receptor [1]; [3],0.29 ± 0.079 nM
same,Ki,σ1-receptor [2]; [7],2.2 ± 0.3 nM
"COC1Cc2sccc2C2(CCN(CC=C(C)C)CC2)O1 (stereo not drawn) [Example 7, 6′-Methoxy-1-(3-methylbut-2-enyl)-6′,7′-dihydrospiro[piperidin-4.4-thieno[3.2-c]pyran]]",Ki,σ1-receptor [1],0.96 ± 0.25 nM
same,Ki,σ2-receptor; [4],78.1 ± 74 nM
"CC(=O)CC1Cc2sccc2C2(CCN(Cc3ccccc3)CC2)O1 (stereo not drawn) [Example 23, 1-(1-Benzyl-6′,7′-dihydrospiro[piperidine-4,4′-thieno[3.2-c]pyrano]-6′-yl)acetone]",Ki,σ2-receptor; [6],1610 nM
COC1Cc2sccc2C2(CCN(CCCc3ccccc3)CC2)O1 (stereo not drawn) [Example 11],Ki,σ2-receptor; [6],203 nM
"COC1Cc2sccc2C2(CCNCC2)O1 (stereo not drawn) [Example 2, 6′-Methoxy-6′,7′-dihydrospiro[piperidin-4,4′-thieno[3,2-c]pyran]",Ki,σ1-receptor [1]; [3],602 nM
same,inhibition at 1 µM,σ2-receptor; [5],17%
COC1Cc2sc(C(OC)OC)cc2C2(CCN(Cc3ccccc3)CC2)O1 (stereo not drawn) [Example 37],melting point,,71 °C
"OCCC1Cc2sccc2C2(CCN(Cc3ccccc3)CC2)O1 (stereo not drawn) [Example 27, 2-(1-Benzyl-6′,7′-dihyrospiro[piperidine-4,4′-thieno[3,2-c]pyrano]-6′-yl)ethanol]",inhibition at 1 µM,σ2-receptor; [5],11%
"COC1Cc2sc(CN(C)C)cc2C2(CCN(Cc3ccccc3)CC2)O1 (stereo not drawn) [Example 42, (1-Benzyl-6′-methoxy-6′,7′-dihydrospiro[piperidine-4,4′-thieno[3.2-c]pyrano]-2′-yl)-N,N-dimethylmethanamine]",Ki,σ1-receptor [1],16.8 ± 1.1 nM
same,Ki,σ2-receptor; [6],898 nM
"O=C1Cc2sccc2C2(CCN(Cc3ccccc3)CC2)O1 [Example 28, 1-Benzylspiro[piperidine-4,4′-thieno[3.2-c]pyrano]-6′(7′H)-one]",inhibition at 1 µM,σ2-receptor,0%
"COC1Cc2sc(C(=O)c3ccccc3)cc2C2(CCN(Cc3ccccc3)CC2)O1 (stereo not drawn) [Example 47, 1-(1-Benzyl-6′-methoxy-6′,7′-dihydrospiro[piperidine-4,4′-thieno[3.2-c]pyrano]-2-yl)-1-phenylmethanone]",Ki,σ2-receptor; [6],427 ± 163 nM
"COC1Cc2sccc2C2(CCN(Cc3ccc(F)cc3)CC2)O1 (stereo not drawn) [Example 13, 1-(4-Flourbenzyl)-6′-Methoxy-6′,7′-dihydrospiro[piperidin-4,4′-thieno[3.2-c]pyran]]",Ki,σ1-receptor [1],3.39 ± 4.54 nM
same,Ki,σ1-receptor [2],2.3 ± 0.4 nM
same,Ki,σ2-receptor; [6],425 nM
"COC1Cc2sccc2C2(CCN(CCC(C)C)CC2)O1 (stereo not drawn) [Example 6, 6′-Methoxy-1-(3-methylbutyl)-6′,7′-dihydrospiro[piperidin-4,4′-thieno[3.2-c]pyran]]",Ki,σ1-receptor [1],0.96 ± 0.53 nM
same,Ki,σ1-receptor [2],1.3 ± 0.5 nM
same,Ki,σ2-receptor; [6],285 nM
"COc1ccc(CN2CCC3(CC2)OC(OC)Cc2sccc23)cc1 (stereo not drawn) [Example 14, 6′-Methoxy-1-(4-methoxybenzyl)-6′,7′-dihydrospiro[piperidin-4,4′-thieno[3.2-c]pyran]]",Ki,σ1-receptor [1],2.24 ± 0.99 nM
same,Ki,σ2-receptor; [6],2970 nM
"COC1Cc2sc(C#N)cc2C2(CCN(Cc3ccccc3)CC2)O1 (stereo not drawn) [Example 44, 1-Benzyl-6′-methoxy-6′,7′-dihydrospiro[piperidine-4,4′-thieno[3,2-c]pyrano]-2-carbonitrile]",inhibition at 1 µM,σ2-receptor; [5],16%
"c1ccc(CN2CCC3(CC2)OCCc2sccc23)cc1 [Example 19, 1-Benzyl-6′,7′-dihydrospiro[piperidin-4,4′-thieno[3,2-c]pyran]]",Ki,σ1-receptor [1],0.31 ± 0.11 nM
same,Ki,σ1-receptor [2]; [7],2.1 ± 0.4 nM
same,Ki,σ2-receptor; [4],9.6 ± 8.7 nM
"COC1Cc2sc(C=NO)cc2C2(CCN(Cc3ccccc3)CC2)O1 (mixture of isomers) [Example 43, (E/Z)-1-Benzyl-6′-methoxy-6′,7′-dihydrospiro[piperidine-4,4′-thieno[3,2-c]pyrano]-2-carbaldehydroxim]",inhibition at 1 µM,σ2-receptor; [5],2%
